Reference: publication PMC4748415, “Impact of different cell penetrating peptides on the efficacy of antisense therapeutics for targeting intracellular pathogens” (Scientific Reports, 2016)
Converted amounts (≈) assume the structure as drawn. “And” between values parts separate entries of the source, which are not always exact repeats. Equal values may be shown once. “Also recorded” adds a separate entry of the source. Read-outs that look alike come from different tables or passages of the source. Peptide text beside a SMILES is read from it.

Assays:
[1] = system: L. monocytogenes J0161 in infected C. elegans; assay: C. elegans infection model; conditions: 18 hours treatment; for Log CFUs/worm: 10 worms in triplicates; for Log CFUs reduction: versus water
Experimental: To test the efficacy of PNA in vivo we used Listeria-infected C. elegans. The temperature-sensitive sterile mutant strain C. elegans AU37 [sek-1(km4); glp-4(bn2) I] was used for this study. This strain is sterile at room temperature and can lay eggs only at 15 °C. Furthermore, mutation in the sek-1 gene of the p38 mitogen-activated protein kinase pathway (p38 MAPK pathway), makes this particular C. elegans strain more susceptible to Listeria infection[49][56]. Initially, the pathogenicity of three strains of Listeria (F4244, J0161 and ATCC19111) was tested in C. elegans as described before[24] to determine the most virulent strain to use for this study. […] Briefly, adult worms were grown for 5 days, at 15 °C (temperature that permits worms to lay eggs) on NGM agar plates seeded with a lawn of E. coli OP50. The eggs were harvested by bleaching[57] and maintained for 24 hours at room temperature with gentle agitation for hatching. Hatched larvae were transferred to a new NGM plate seeded with E. coli OP50 and were kept at room temperature for five days until worms reached the adult stage of growth. Adult worms were collected and washed three times with M9 media in a 1:10 ratio to remove E. coli before transfer to LB agar plates seeded with a lawn of L. monocytogenes J0161 for infection. After eight hours of infection, worms were collected and washed with M9 buffer five times before incubation with PNAs. Worms were transferred to low-binding microcentrifuge tubes (10 worms per tube). […] After treatment for 18 hours, worms were washed five times with M9 buffer. […] Samples were serially diluted and plated onto TSA plates containing 5 μg/ml nalidixic acid to select for Listeria.

[2] = system: clinical isolates of L. monocytogenes; type: cell-based, Listeria monocytogenes
Experimental: (§1) The MICs of conjugated PNAs, free PNA, CPPs and untreated control against L. monocytogenes were determined using the broth microdilution method according to the Clinical and Laboratory Standards Institute (CLSI) guidelines with the following modifications. Briefly, low binding clear microcentrifuge tubes (USA scientific, Inc. Ocala, FL) were used in triplicates for each reaction instead of traditional 96-well plates. […] After a 16 hour incubation period (of test agent with bacteria), the number of viable bacteria was enumerated by serial dilution and counting on TSA plates. The MICs were repeated at least twice.

L. monocytogenes F4244 [3] = assay: Time kill assay; type: cell-based, Listeria monocytogenes; conditions: 12 hours; for bactericidal or bacteriostatic activity: L. monocytogenes, time kill at 32 μM
Experimental: L. monocytogenes F4244 in logarithmic growth phase was diluted to ~10^5 CFU/ml and incubated with 32 μM of the five PNAs (in triplicates) at 37 °C for 12 hours. Samples were collected every two hours, serially diluted, and plated onto TSA plates. Plates were then incubated wat 37 °C for 24 hours before viable CFUs were determined.
Samples were collected every 20 minutes and processed as above.

L. monocytogenes F4244 [4] = assay: Concentration-dependent bacterial log reduction in pure culture; type: cell-based, Listeria monocytogenes; conditions: for Log CFU/ml: pure culture F4244, 16 hour incubation; for Log CFU reduction: relative to control, pure culture F4244
Experimental: as §1

[5] = system: L. monocytogenes F4244 inside infected J774A.1 cells; type: cell-based; conditions: 4 hours; for Log CFU/ml: intracellular F4244 in J774A.1; for Log CFU reduction: intracellular F4244 in J774A.1, versus control
[6] = concentration required to inhibit 50% of L. monocytogenes isolates (six isolates)
[7] = strain ATCC 13932, broth microdilution in low binding tubes, triplicates, 16 hour incubation
[8] = strain ATCC 19111, broth microdilution in low binding tubes, triplicates, 16 hour incubation
[9] = strain ATCC 19112, broth microdilution in low binding tubes, triplicates, 16 hour incubation
[10] = strain ATCC 19114, broth microdilution in low binding tubes, triplicates, 16 hour incubation
[11] = strain F4244, broth microdilution in low binding tubes, triplicates, 16 hour incubation, no turbidity
[12] = strain J0161, broth microdilution in low binding tubes, triplicates, 16 hour incubation

With `CNC(C)C1CCC(N)C(OC2C(N)CC(N)C(OC3OCC(C)(O)C(NC)C3O)C2O)O1` (stereo not drawn) [Gentamicin, gentamicin, reference compound] the “Log CFUs/worm” value ([1]; 16 µM) was 3.52±0.55 Log CFUs/worm, the “Log CFUs reduction” value ([1]; 16 µM) was 0.63 Log CFUs and the “Log CFUs/worm” value ([1]; 32 µM) was 2.18±0.6 Log CFUs/worm. For the same compound, the “Log CFUs reduction” value ([1]; 32 µM) was 2.2 Log CFUs.
Compound `NCCCC[C@H](NC(=O)[C@H](Cc1ccccc1)NC(=O)[C@H](Cc1ccccc1)NC(=O)[C@H](CCCCN)NC(=O)[C@H](Cc1ccccc1)NC(=O)[C@H](Cc1ccccc1)NC(=O)[C@H](CCCCN)NC(=O)[C@H](Cc1ccccc1)NC(=O)[C@H](Cc1ccccc1)NC(=O)[C@@H](N)CCCCN)C(N)=O` [KFF, reference compound] (H-KFFKFFKFFK-NH2) has an MIC50 ([2]; clinical isolates of, 16 h) of 64 µM (≈ 90.4 µg/mL).
For `N=C(N)NCCC[C@H](NC(=O)CN)C(=O)N[C@@H](CCCCN)C(=O)N[C@@H](CCCCN)C(=O)N[C@@H](CCCCN)C(=O)N[C@@H](CCCNC(=N)N)C(=O)N[C@@H](CCCNC(=N)N)C(=O)N[C@@H](CCC(N)=O)C(=O)N[C@@H](CCCNC(=N)N)C(=O)N[C@@H](CCCNC(=N)N)C(=O)N[C@@H](CCCNC(=N)N)C(=O)N[C@@H](Cc1ccc(O)cc1)C(=O)N[C@@H](CCCCN)C(=O)O` [TAT, reference compound] (H-GRKKKRRQRRRYK-OH), the MIC ([2]; clinical isolates of, 16 h) was >128 µM and the MIC50 ([2]; clinical isolates of, 16 h) was >128 µM.
“KFFKFFKFFK-O-cgatcattcaaa-NH2 [PKFF, anti-rpoA PNA covalently conjugated to the (KFF)3K CPP]” was tested, and the “bactericidal or bacteriostatic activity” value (L. monocytogenes F4244 [3]) was “bacteriostatic effect”, the “Log CFUs/worm” value ([1]; 16 µM) was 3.43±0.2 Log CFUs/worm and the “Log CFUs reduction” value ([1]; 16 µM) was 0.71 Log CFUs. For the same compound, the “Log CFUs/worm” value ([1]; 32 µM) was 3.35±0.25 Log CFUs/worm, the “Log CFUs reduction” value ([1]; 32 µM) was 1.03 Log CFUs and the “Log CFU/ml” value (L. monocytogenes F4244 [4]; 1 µM PNA) was 9.40±0.08 Log CFU/ml. For the same compound, the “Log CFU reduction” value (L. monocytogenes F4244 [4]; 1 µM PNA) was -0.009 Log CFU, the “Log CFU/ml” value (L. monocytogenes F4244 [4]; 2 µM PNA) was 9.35±0.05 Log CFU/ml and the “Log CFU reduction” value (L. monocytogenes F4244 [4]; 2 µM PNA) was 0.041 Log CFU. The “Log CFU/ml” value (L. monocytogenes F4244 [4]; 4 µM PNA) was 9.26±0.07 Log CFU/ml, the “Log CFU reduction” value (L. monocytogenes F4244 [4]; 4 µM PNA) was 0.129 Log CFU and the “Log CFU/ml” value (L. monocytogenes F4244 [4]; 8 µM PNA) was 8.93±0.35 Log CFU/ml. For the same compound, the “Log CFU reduction” value (L. monocytogenes F4244 [4]; 8 µM PNA) was 0.46 Log CFU, the “Log CFU/ml” value (L. monocytogenes F4244 [4]; 16 µM PNA) was 8.40±0.16 Log CFU/ml and the “Log CFU reduction” value (L. monocytogenes F4244 [4]; 16 µM PNA) was 0.98 Log CFU. The “Log CFU/ml” value (L. monocytogenes F4244 [4]; 32 µM PNA) was 6.63±0.59 Log CFU/ml, the “Log CFU reduction” value (L. monocytogenes F4244 [4]; 32 µM PNA) was 2.78 Log CFU and the MIC50 [2, 6] was 32 µM. For the same compound, the MIC [2, 7] was 32 µM, the MIC [2, 8] was 32 µM and the MIC [2, 9] was 32 µM. The MIC [2, 10] was 2 µM, the MIC [2, 11] was 32 µM and the MIC [2, 12] was 32 µM. For the same compound, the “Log CFU/ml” value ([5]; 2 μM) was 6.77 ± 0.03 Log CFU/ml, the “Log CFU reduction” value ([5]; 2 μM) was −0.031 Log CFU and the “Log CFU/ml” value ([5]; 4 μM) was 6.76 ± 0.08 Log CFU/ml. For the same compound, the “Log CFU reduction” value ([5]; 4 μM) was −0.029 Log CFU, the “Log CFU/ml” value ([5]; 8 μM) was 6.12 ± 0.32 Log CFU/ml and the “Log CFU reduction” value ([5]; 8 μM) was 0.6 Log CFU.
With “RFRRFRRFRRFRXB [(RFR)4XB, cell penetrating peptide (RFR)4XB, reference compound]” the MIC50 [2, 6] was >128 µM, the MIC [2, 7] was >128 µM and the MIC [2, 8] was 32 µM. The MIC [2, 9] was >128 µM, the MIC [2, 10] was 128 µM and the MIC [2, 11] was >128 µM. For the same compound, the MIC ([2]; strain F4244, broth microdilution in low binding tubes, triplicates, 16 hour incubation, no turbidity, listed as RFR) was “no growth inhibition” and the MIC [2, 12] was >128 µM.
For “RQIKIWFQNRRMKWKK-O-cgatcattcaaa-NH2 [PANT, anti-rpoA PNA covalently conjugated to the antennapedia CPP]”, the “time to complete eradication of Listeria” value (L. monocytogenes F4244 [3]; 32 μM PNA, 37 °C, samples every 2 hours, ~10^5 CFU/ml) was 10 h, the “bactericidal or bacteriostatic activity” value (L. monocytogenes F4244 [3]) was “bactericidal activity” and the “Log CFUs/worm” value ([1]; 16 µM) was 3.88±0.15 Log CFUs/worm. For the same compound, the “Log CFUs reduction” value ([1]; 16 µM) was 0.27 Log CFUs, the “Log CFUs/worm” value ([1]; 32 µM) was 2.49±0.48 Log CFUs/worm and the “Log CFUs reduction” value ([1]; 32 µM) was 1.89 Log CFUs. For the same compound, the “Log CFU/ml” value (L. monocytogenes F4244 [4]; 1 µM PNA) was 9.30±0.06 Log CFU/ml, the “Log CFU reduction” value (L. monocytogenes F4244 [4]; 1 µM PNA) was 0.095 Log CFU and the “Log CFU/ml” value (L. monocytogenes F4244 [4]; 2 µM PNA) was 9.27±0.21 Log CFU/ml. For the same compound, the “Log CFU reduction” value (L. monocytogenes F4244 [4]; 2 µM PNA) was 0.119 Log CFU, the “Log CFU/ml” value (L. monocytogenes F4244 [4]; 4 µM PNA) was 9.14±0.05 Log CFU/ml and the “Log CFU reduction” value (L. monocytogenes F4244 [4]; 4 µM PNA) was 0.25 Log CFU. For the same compound, the “Log CFU/ml” value (L. monocytogenes F4244 [4]; 8 µM PNA) was 8.09±0.95 Log CFU/ml, the “Log CFU reduction” value (L. monocytogenes F4244 [4]; 8 µM PNA) was 1.3 Log CFU and 1.30 Log CFU and the “Log CFU/ml” value (L. monocytogenes F4244 [4]; 16 µM PNA) was 6.73±0.48 Log CFU/ml. For the same compound, the “Log CFU reduction” value (L. monocytogenes F4244 [4]; 16 µM PNA) was 2.66 Log CFU, the “Log CFU/ml” value (L. monocytogenes F4244 [4]; 32 µM PNA) was “bacterial clearance; also recorded: Cleared” and the “Log CFU reduction” value (L. monocytogenes F4244 [4]; 32 µM PNA) was 9.39 Log CFU. The MIC50 [2, 6] was 32 µM, the MIC [2, 7] was 32 µM and the MIC [2, 8] was 32 µM. The MIC [2, 9] was 32 µM, the MIC [2, 10] was 1 µM and the MIC [2, 11] was 16 µM. The MIC [2, 12] was 32 µM, the “Log CFU/ml” value ([5]; 2 μM) was 6.82 ± 0.02 Log CFU/ml and the “Log CFU reduction” value ([5]; 2 μM) was −0.09 Log CFU. For the same compound, the “Log CFU/ml” value ([5]; 4 μM) was 6.67 ± 0.05 Log CFU/ml, the “Log CFU reduction” value ([5]; 4 μM) was 0.06 Log CFU and the “Log CFU/ml” value ([5]; 8 μM) was 4.65 ± 0.34 Log CFU/ml. For the same compound, the “Log CFU reduction” value ([5]; 8 μM) was 2.07 Log CFU.
For “RXRRXRRXRRXRXB [(RXR)4XB, cell penetrating peptide (RXR)4XB, reference compound]”, the MIC50 [2, 6] was >128 µM, the MIC [2, 7] was >128 µM and the MIC [2, 8] was >128 µM. For the same compound, the MIC [2, 9] was >128 µM, the MIC [2, 10] was >128 µM and the MIC [2, 11] was >128 µM. The MIC ([2]; strain F4244, broth microdilution in low binding tubes, triplicates, 16 hour incubation, no turbidity, listed as RXR) was “no growth inhibition” and the MIC [2, 12] was >128 µM.
